Activity calls are given as the source filed them. No cut-off for these calls is given here.
Columns and labels:
Acetylcholinesterase [1] = target: Acetylcholinesterase (Electrophorus electricus, UniProt O42275)
Description: Inhibition of Electrophorus electricus AChE after 5 mins by Ellman's method

Cholinesterase = Cholinesterase (Equus caballus, UniProt P81908)
Description: Inhibition of equine serum BuChE after 5 mins by Ellman's method

Acetylcholinesterase [2] = target: T1, Acetylcholinesterase (Homo sapiens, UniProt P22303)
Description: Inhibition of human recombinant AChE after 5 mins by Ellman's method

[3] = target: Amyloid-beta precursor protein (Homo sapiens) (UniProt P05067); experiment: Neuroprotective activity in human SH-SY5Y cells assessed as inhibition amyloid beta (1 to 42)-induced cytotoxicity at 1 uM after 48 hrs; format: functional, cell-based; parameters: scale not given: the % may be the effect or the level left
Chain of Amyloid-beta precursor protein (Homo sapiens) (P05067 whole entry): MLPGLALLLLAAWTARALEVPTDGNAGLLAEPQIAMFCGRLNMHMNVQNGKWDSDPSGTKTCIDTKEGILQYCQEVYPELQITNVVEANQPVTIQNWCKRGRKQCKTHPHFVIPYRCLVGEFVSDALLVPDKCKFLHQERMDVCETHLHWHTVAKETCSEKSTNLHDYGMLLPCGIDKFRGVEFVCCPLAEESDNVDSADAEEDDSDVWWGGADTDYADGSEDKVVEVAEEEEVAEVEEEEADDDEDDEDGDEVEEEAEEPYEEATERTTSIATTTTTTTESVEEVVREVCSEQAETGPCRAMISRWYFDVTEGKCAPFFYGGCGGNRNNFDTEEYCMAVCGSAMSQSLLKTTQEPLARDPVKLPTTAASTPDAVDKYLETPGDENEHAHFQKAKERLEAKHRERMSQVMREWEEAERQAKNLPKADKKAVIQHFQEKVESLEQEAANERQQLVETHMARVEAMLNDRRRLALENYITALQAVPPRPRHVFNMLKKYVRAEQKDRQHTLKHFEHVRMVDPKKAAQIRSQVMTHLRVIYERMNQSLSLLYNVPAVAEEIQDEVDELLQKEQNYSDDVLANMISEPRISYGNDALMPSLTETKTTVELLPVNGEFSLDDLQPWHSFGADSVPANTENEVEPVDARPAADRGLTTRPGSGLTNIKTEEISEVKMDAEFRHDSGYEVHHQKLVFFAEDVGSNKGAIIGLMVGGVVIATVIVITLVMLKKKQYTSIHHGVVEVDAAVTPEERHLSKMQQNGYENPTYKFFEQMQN

[4] = target: Amyloid-beta precursor protein (Homo sapiens) (UniProt P05067); experiment: Neuroprotective activity in human SH-SY5Y cells assessed as inhibition amyloid beta (1 to 42)-induced cytotoxicity at 3 uM after 48 hrs; format: functional, cell-based; parameters: scale not given: the % may be the effect or the level left
[5] = target: Amyloid-beta precursor protein (Homo sapiens) (UniProt P05067); experiment: Neuroprotective activity in human SH-SY5Y cells assessed as inhibition amyloid beta (1 to 42)-induced cytotoxicity at 10 uM after 48 hrs; format: functional, cell-based
[6] = Cytotoxicity against human SH-SY5Y cells assessed as cell viability at 0.1 to 10 uM after 48 hrs by MTS assay; format: cell-based
Acetylcholinesterase [7] = target: T1, Acetylcholinesterase; experiment: Inhibition of human recombinant AChE at 10 uM after 5 mins by Ellman's method
[8] = target: Cholinesterase (Equus caballus) (UniProt P81908); experiment: Inhibition of equine serum BuChE at 10 uM after 5 mins by Ellman's method
Chain of Cholinesterase (Equus caballus) (P81908 whole entry): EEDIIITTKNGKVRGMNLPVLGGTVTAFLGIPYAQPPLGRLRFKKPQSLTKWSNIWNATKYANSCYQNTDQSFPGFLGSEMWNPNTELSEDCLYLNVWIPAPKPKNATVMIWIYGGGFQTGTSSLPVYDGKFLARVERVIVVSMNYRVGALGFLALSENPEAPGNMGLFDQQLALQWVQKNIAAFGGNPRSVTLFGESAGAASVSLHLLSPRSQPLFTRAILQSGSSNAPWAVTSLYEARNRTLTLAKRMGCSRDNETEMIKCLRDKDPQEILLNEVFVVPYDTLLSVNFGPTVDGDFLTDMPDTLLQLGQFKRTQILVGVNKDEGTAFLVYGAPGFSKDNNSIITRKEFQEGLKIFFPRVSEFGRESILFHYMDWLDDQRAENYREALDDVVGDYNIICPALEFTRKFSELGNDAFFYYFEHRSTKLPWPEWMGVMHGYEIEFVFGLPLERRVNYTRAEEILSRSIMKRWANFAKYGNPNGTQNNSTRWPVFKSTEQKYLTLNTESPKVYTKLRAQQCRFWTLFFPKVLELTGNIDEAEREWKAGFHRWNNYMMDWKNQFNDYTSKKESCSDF

[9] = target: Acetylcholinesterase (Electrophorus electricus) (UniProt O42275); experiment: Non-competitive inhibition of Electrophorus electricus AChE after 5 mins by Lineweaver-Burk plot analysis
Chain of Acetylcholinesterase (Electrophorus electricus) (O42275 24-633 limits assumed): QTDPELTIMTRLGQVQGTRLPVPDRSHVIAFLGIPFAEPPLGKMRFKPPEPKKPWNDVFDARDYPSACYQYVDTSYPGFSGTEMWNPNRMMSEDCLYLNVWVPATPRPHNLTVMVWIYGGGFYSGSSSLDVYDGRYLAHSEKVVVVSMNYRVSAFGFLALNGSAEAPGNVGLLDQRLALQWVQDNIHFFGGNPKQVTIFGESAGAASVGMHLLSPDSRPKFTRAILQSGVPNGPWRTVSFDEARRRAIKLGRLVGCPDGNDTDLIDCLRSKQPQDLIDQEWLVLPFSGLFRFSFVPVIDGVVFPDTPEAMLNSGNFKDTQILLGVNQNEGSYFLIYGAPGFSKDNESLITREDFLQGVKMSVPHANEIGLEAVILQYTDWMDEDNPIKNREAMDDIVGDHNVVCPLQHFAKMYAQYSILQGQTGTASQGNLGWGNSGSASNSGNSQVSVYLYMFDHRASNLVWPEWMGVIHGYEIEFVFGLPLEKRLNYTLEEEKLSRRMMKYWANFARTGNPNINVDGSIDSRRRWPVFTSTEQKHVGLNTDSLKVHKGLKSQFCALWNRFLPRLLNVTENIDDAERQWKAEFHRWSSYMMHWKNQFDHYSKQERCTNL

[10] = target: Acetylcholinesterase (Electrophorus electricus) (UniProt O42275); experiment: Inhibition of Electrophorus electricus AChE at 10 uM after 5 mins by Ellman's method
[11] = target: Amyloid-beta precursor protein (Homo sapiens) (UniProt P05067); experiment: Inhibition of human recombinant amyloid beta (1 to 42) self-induced aggregation after 24 hrs by thioflavin-T based fluorometric assay

T1 sequence (P22303 whole entry): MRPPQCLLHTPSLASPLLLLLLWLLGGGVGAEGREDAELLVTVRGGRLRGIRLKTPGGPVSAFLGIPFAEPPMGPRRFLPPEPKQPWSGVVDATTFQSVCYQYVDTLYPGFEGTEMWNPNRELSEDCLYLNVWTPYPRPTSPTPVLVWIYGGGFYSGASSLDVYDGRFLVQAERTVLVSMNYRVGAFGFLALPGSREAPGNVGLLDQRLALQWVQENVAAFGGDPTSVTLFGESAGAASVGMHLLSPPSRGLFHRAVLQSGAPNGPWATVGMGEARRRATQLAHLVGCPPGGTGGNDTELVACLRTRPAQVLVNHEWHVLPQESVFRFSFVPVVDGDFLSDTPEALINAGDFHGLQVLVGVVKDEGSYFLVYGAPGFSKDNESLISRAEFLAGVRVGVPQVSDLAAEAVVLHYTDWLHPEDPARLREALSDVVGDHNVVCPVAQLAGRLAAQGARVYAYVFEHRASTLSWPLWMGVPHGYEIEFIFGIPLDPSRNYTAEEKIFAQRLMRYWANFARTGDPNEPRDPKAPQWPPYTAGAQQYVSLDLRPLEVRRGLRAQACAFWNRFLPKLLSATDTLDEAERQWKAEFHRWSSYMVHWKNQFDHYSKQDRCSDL
Chain of Cholinesterase (P81908 whole entry): as the sequence (P81908 whole entry) above
Chain of Acetylcholinesterase (Electrophorus electricus, UniProt O42275) (O42275 whole entry): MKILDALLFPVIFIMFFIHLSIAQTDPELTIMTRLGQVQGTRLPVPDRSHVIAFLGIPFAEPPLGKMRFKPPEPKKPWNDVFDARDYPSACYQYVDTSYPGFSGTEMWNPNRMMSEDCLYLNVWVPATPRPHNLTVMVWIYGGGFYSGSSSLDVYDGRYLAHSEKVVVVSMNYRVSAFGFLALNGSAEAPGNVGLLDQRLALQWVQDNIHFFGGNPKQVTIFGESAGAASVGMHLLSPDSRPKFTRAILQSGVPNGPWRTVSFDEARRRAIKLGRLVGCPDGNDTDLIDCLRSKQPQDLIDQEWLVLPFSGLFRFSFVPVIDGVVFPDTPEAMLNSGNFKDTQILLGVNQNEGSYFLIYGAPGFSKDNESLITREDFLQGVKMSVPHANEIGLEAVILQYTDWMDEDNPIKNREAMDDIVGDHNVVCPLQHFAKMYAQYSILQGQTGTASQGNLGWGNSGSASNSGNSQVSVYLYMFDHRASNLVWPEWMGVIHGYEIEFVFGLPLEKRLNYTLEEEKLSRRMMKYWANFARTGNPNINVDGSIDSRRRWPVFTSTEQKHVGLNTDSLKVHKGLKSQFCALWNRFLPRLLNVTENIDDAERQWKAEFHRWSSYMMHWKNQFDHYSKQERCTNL

| SMILES | IC50 (Acetylcholinesterase [1]) | IC50 (Cholinesterase) | IC50 (Acetylcholinesterase [2]) | inhibition [8] | further results |
| --- | --- | --- | --- | --- | --- |
| O=C1c2ccccc2C(=O)N1CCCCCCNCc1cccc(Cl)c1 | 180 nM | 4600 nM | 2010 nM | – | – |
| O=C1c2ccccc2C(=O)N1CCCCCCCNCc1ccc(F)cc1F | 171 nM | 1870 nM | 381 nM | – | – |
| O=C1c2ccccc2C(=O)N1CCCCCCNCc1ccc(F)cc1F | 229 nM | 8090 nM | 1600 nM | – | Activity [3]: 80.3%; Activity [4]: 66.5%; Activity [5]: inactive; Activity [6]: Non-toxic |
| O=C1c2ccccc2C(=O)N1CCCCCCCNCc1ccc(F)cc1 | 361 nM | 1580 nM | 437 nM | – | – |
| O=C1c2ccccc2C(=O)N1CCCCNCc1ccccc1F | 2030 nM | – | – | < 50% | inhibition (Acetylcholinesterase [7]): < 50% |
| O=C1c2ccccc2C(=O)N1CCCCCNCc1ccccc1 | 78 nM | – | 202 nM | < 50% | – |
| O=C1c2ccccc2C(=O)N1CCCCNCc1ccc(F)cc1F | 8180 nM | – | – | < 50% | inhibition (Acetylcholinesterase [7]): < 50% |
| O=C1c2ccccc2C(=O)N1CCCCCNCc1ccccc1F | 41 nM | – | 168 nM | < 50% | – |
| O=C1c2ccccc2C(=O)N1CCCCCCCCNCc1ccc(F)cc1F | 601 nM | 1060 nM | 578 nM | – | – |
| O=C1c2ccccc2C(=O)N1CCCCNCc1ccccc1 | 5280 nM | – | – | < 50% | inhibition (Acetylcholinesterase [7]): < 50% |
| O=C1c2ccccc2C(=O)N1CCCCCCCNCc1cccc(Cl)c1 | 502 nM | 2630 nM | 651 nM | – | – |
| O=C1c2ccccc2C(=O)N1CCCCCNCc1ccc(F)cc1F | 100 nM | – | 258 nM | < 50% | inhibition [9]: Active |
| O=C1c2ccccc2C(=O)N1CCCCCCNCc1ccccc1F | 113 nM | – | 941 nM | < 50% | – |
| O=C1c2ccccc2C(=O)N1CCCCCCCNCc1ccccc1 | 249 nM | 1710 nM | 303 nM | – | – |
| O=C1c2ccccc2C(=O)N1CCCCCCCCNCc1ccccc1F | 438 nM | 2090 nM | 545 nM | – | – |
| O=C1c2ccccc2C(=O)N1CCCCCCNCc1ccc(F)cc1 | 694 nM | 9200 nM | 3170 nM | – | – |
| O=C1c2ccccc2C(=O)N1CCCCCCCCNCc1ccc(F)cc1 | 2230 nM | 1690 nM | – | – | inhibition (Acetylcholinesterase [7]): < 50% |
| O=C1c2ccccc2C(=O)N1CCCCCCCCNCc1ccccc1 | 773 nM | 1230 nM | 496 nM | – | inhibition [9]: Active |
| O=C1c2ccccc2C(=O)N1CCCCNCc1cccc(Cl)c1 | 1970 nM | – | – | < 50% | inhibition (Acetylcholinesterase [7]): < 50% |
| O=C1c2ccccc2C(=O)N1CCCCNCc1ccc(F)cc1 | – | – | – | < 50% | inhibition (Acetylcholinesterase [7]): < 50%; inhibition [10]: < 50% |
| O=C1c2ccccc2C(=O)N1CCCCCCCCNCc1cccc(Cl)c1 | 729 nM | 1480 nM | 686 nM | – | – |
| O=C1c2ccccc2C(=O)N1CCCCCCCNCc1ccccc1F | 119 nM | 2380 nM | 329 nM | – | – |
| O=C1c2ccccc2C(=O)N1CCCCCCNCc1ccccc1 | 216 nM | – | 2100 nM | < 50% | – |
| O=C1c2ccccc2C(=O)N1CCCCCNCc1cccc(Cl)c1 | 34 nM | – | 160 nM | < 50% | inhibition [9]: Active |
| O=C1c2ccccc2C(=O)N1CCCCCNCc1ccc(F)cc1 | 219 nM | – | 268 nM | < 50% | inhibition [11]: Dose-dependent effect; Activity [3]: 84.5%; Activity [4]: 76.2%; Activity [5]: inactive; Activity [6]: Non-toxic |

Reference: ChEMBL document CHEMBL3414441, “Development of multifunctional, heterodimeric isoindoline-1,3-dione derivatives as cholinesterase and β-amyloid aggregation inhibitors with neuroprotective properties” (Eur J Med Chem, 2015)
